Reference: paper doi:10.1101/324947v3 (biorxiv, 2020)

Experiments:
[1] = molecular target: T1, recombinant IDO1 (holo-IDO1; apo-IDO1) (Homo sapiens, UniProt P14902); assay: NFK formation from D-TRP, Morrison tight binding fit; type: biochemical
[2] = molecular target: T1, recombinant IDO1 (holo-IDO1; apo-IDO1); assay: intrinsic TRP fluorescence quenching, equilibrium titration; type: binding
[3] = molecular target: T1, recombinant IDO1 (holo-IDO1; apo-IDO1); assay: fluorescence polarization competition against GSK1051; type: binding

T1 sequence (P14902 whole entry): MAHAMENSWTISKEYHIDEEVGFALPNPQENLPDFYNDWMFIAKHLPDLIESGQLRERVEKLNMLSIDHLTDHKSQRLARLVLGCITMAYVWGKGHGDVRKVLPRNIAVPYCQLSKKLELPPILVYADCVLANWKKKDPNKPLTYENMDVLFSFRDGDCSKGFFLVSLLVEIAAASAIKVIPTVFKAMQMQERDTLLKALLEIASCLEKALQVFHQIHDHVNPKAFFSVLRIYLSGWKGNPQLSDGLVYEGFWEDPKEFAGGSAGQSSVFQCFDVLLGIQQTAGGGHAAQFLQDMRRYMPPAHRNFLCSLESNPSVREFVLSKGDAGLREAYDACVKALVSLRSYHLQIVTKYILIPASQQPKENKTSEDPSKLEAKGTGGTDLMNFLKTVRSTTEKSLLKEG

Ki [1] [nM]	Kd [2] [nM]	IC50 [3] [nM]	SMILES
10	2.1		CC(C)CN(CC(C)C)c1ccc([C@H](C)CC(=O)O)cc1Nc1nc(C(F)(F)F)ns1 [GSK5628]
		4.4	C=CC1=C(C)C2=Cc3c(C=C)c(C)c4[n]3[Fe+][n]3c(c(C)c(CCC(=O)O)c3=CC3=NC(=C4)C(C)=C3CCC(=O)O)=CC1=N2 [heme]
